This is an account of results in patent publication US20110117106A1, “USES OF CALPAIN INHIBITORS TO INHIBIT INFLAMMATION” (priority 2008, published 2011).

The subject of series [1] is occludin cleavage by calpain (45 kDa occludin cleavage product). Kind of series: Occludin cleavage: immunoprecipitation and immunoblot in 1HAEo- cells. It counts as cell-based, human. The following applies: for Generation of occludin cleavage product in presence of inhibitor: 6 μM BAPTA/AM, 20 μM ALLN, 20 μM GM6001, 25 μM Z-DEVD-FMK. Here is the method:
(§1) 1HAEo-cells or SAECs were grown to confluence on 10 cm plates, stimulated with heat killed PAO1 (10^7 CFU) or P3C (15 μg/ml), and whole cell lysates made using 60 mM n-octyl-β-D-glucopyranoside (OGP) in TBS (0.1 M Tris-HCl and 0.15 M NaCl, pH 7.8) containing Complete Mini protease inhibitor tablets (Roche), 1 mM sodium orthovanadate and 100 mM sodium fluoride. Monoclonal anti-E-cadherin (BD Pharmingen), polyclonal anti-pan calpain (Santa Cruz Biotechnologies) or monoclonal anti-occludin (Invitrogen/Zymed) antibodies were used for immunoprecipitations followed by the addition of Protein G Agarose beads (Invitrogen) (Chun and Prince, 2006). Immunodetection was performed using monoclonal anti-E-cadherin, polyclonal anti-occludin, anti-pan calpain, anti-calpain 1 and anti-calpain 2 antibodies (Santa Cruz Biotechnology).
1HAEo-cells were transiently transfected with scrambled (control) or calpain 1 and 2 siRNA Smart pool oligos (Dharmacon) (FIGS. 11 and 12). Transfection was carried out using an Amaxa Nucleofector following manufacturer's instructions. Briefly, 10^6 1HAEo-cells were electroporated in 100 μl Buffer L with 1.5 μg of scrambled or siRNA oligo and transferred into pre-warmed 6 well tissue culture dishes. Cells were incubated at 37° C., 5% CO2 for 48 hours before performing experiments.

The subject of series [2] is NF-κB activation, IL-8 production. Kind of series: NF-κB activation and IL-8 production in airway cells. It counts as cell-based. Conditions: cells treated with BAPTA/AM to chelate intracellular Ca2+.
Series [3] deals with SARS-associated coronavirus. Conditions: one isolate of the coronavirus; cited from earlier work.
Series [4] has as its system E-cadherin cleavage by calpain (100 kDa E-cadherin cleavage product). Kind of series: E-cadherin cleavage: immunoblot in 1HAEo- cells. Format: cell-based, human. Conditions: airway cells, 4 hr stimulation. Here is the method: as §1
Background: A western blot detects proteins with antibodies after separation by electrophoresis.

Series [5] deals with epithelial cell junctions of polarized 16HBE cells. Kind of series: Biotin labeling and confocal microscopy of polarized 16HBE monolayers. Format: cell-based, human. Conditions: 4 h incubation. The method, then: (§2) 16HBE cells were grown on 3 μm pore size Transwell-Clear filters (Corning-Costar) with an air-liquid interface to form polarized monolayers. For confocal imaging, cells were fixed with 4% paraformaldehyde, blocked with 5% normal donkey serum and incubated at 4° C. overnight with the polyclonal pan-calpain (Santa Cruz Biotechnology), monoclonal occludin (Invitrogen/Zymed) and/or monoclonal E-cadherin (BD Pharmingen) antibodies. Alexa Fluor 594 conjugated and Alexa Fluor 488 conjugated secondary antibodies (Invitrogen/Molecular Probes) were added at room temperature for 1 h. After washing, filters were removed from Transwells using a scalpel, mounted with Vectashield with DAPI (Vector Laboratories) onto glass slides and imaged using a Zeiss LSM 510 Meta scanning confocal microscope. For biotin labeling experiments 1 mg/ml EZ-Link Sulfo-NHS-LC-Biotin was added apically for 30 min at 4° C. before fixing the cells. Alexa Fluor 555 conjugated streptavidin (Molecular Probes) was added for detection of biotin.

The test system of series [6] is occludin, E-cadherin and calpain localization in 16HBE cells. Put plainly: Confocal imaging of junctional proteins and calpain in polarized 16HBE cells. Format: cell-based, human. Conditions: for Co-localization of calpain and E-cadherin: 1 hr stimulation; for Distribution of occludin and E-cadherin at cell junctions: 6 hr exposure. Here is the method:
as §2

Series [7] relates to polarized 16HBE cells. Put plainly: Transepithelial resistance and dextran permeability assays. Format: cell-based, human. Here is the method:
Polarized 16HBE cells grown in 12 mm Transwell-Clear filters (Corning-Costar) were stimulated apically with 10^7 CFU of heat killed PAO1. Transepithelial resistance readings were taken using a Millipore resistance reader which applies a 20 μA square wave alternating current across the monolayers at 12.5 Hz. The resistance of Transwell inserts without cells was used as a baseline control. After 5 h of stimulation, Alexa Fluor 488 labeled dextran (10,000 MW) was added apically for 1 h and fluorescence in the basal compartment monitored at ex 485, em 535 with a SpectraFluor Plus fluorimeter (Tecan). As a positive control, cells were treated apically and basolaterally for 1 h with 0.02% EGTA, an extracellular Ca^2+ chelator which increases paracellular permeability by disrupting cadherin mediated cell-cell adhesion.

For series [8], the system named is calpain 2 mRNA. Kind of series: Real time PCR of calpains and calpastatin in 1HAEo- cells.
Series [9] relates to polarized 16HBE cells. Kind of series: Bacterial transmigration assay.
Procedure: Polarized 16HBE cells were pretreated with media alone, heat killed PAO1 (10^7 CFU), P3C (15 μg/ml), or thapsigargin (0.1 μM) for 4 h. Live PAO1 (2×10^7 CFU) were added apically for 1 h and media from the basal compartment collected and plated on LB agar plates. Bacterial transmigration across monolayers pretreated with 0.02% EGTA was used as a positive control.
The subject of series [10] is calpain. Put plainly: Calpain assay with cell permeable fluorogenic calpain substrate (Boc-LM-CMAC). It counts as cell-based, human. Conditions: 1HAEo- cells and SAEC. The method, then: Confluent monolayers of 1HAEo-cells or SAECs were loaded with 20 μM t-BOC-L-leucine-L-methionine amide (Boc-LM-CMAC), a calpain specific membrane permeable fluorogenic substrate. Cells were stimulated with heat killed PAO1 (10^7 CFU) or P3C (15 μg/ml) and fluorescence was quantified at ex 360 nm and em 465 nm with a Spectrafluor Plus fluorimeter (Tecan).

Series [11] has as its target T1, E-cadherin, P12830.
T1 chain: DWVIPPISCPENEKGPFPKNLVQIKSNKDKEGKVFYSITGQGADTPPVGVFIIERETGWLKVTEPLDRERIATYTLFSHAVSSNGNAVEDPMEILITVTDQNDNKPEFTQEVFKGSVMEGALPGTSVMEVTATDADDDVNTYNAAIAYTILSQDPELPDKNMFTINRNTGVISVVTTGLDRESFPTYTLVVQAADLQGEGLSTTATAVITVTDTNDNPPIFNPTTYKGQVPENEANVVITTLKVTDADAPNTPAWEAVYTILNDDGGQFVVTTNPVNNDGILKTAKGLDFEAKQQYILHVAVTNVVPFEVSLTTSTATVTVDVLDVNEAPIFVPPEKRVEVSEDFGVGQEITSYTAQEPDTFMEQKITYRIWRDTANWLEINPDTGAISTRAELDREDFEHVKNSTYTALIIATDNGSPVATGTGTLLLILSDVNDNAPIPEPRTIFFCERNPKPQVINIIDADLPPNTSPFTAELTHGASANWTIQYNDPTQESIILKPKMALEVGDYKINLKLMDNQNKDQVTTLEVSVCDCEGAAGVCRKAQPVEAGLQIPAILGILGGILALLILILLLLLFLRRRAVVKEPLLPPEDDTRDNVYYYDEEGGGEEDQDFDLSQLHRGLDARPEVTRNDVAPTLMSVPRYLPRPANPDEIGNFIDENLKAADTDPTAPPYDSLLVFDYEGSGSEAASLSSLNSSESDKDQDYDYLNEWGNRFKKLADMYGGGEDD

Series [12] addresses T2, occludin, Q16625.
T2 chain: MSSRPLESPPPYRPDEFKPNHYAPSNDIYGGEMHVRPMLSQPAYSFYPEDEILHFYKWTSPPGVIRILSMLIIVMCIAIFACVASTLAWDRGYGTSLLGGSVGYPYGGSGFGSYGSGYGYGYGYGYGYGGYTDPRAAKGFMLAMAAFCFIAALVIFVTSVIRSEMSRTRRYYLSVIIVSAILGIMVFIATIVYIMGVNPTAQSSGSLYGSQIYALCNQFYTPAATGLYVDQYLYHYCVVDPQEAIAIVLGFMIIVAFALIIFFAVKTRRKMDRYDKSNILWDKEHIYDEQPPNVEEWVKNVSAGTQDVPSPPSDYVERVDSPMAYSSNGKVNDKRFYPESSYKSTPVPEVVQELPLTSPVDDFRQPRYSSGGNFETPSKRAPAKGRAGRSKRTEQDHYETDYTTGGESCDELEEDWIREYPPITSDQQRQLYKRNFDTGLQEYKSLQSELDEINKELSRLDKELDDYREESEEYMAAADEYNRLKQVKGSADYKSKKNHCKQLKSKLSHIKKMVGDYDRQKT

“Also recorded” adds a separate entry of the source. Where a SMILES comes first, the peptide text is derived from it. [ ]: non-standard residue; d: D form. Nle = CCCC[C@H](N)C(=O)O

`CC(=O)OCOC(=O)CN(CC(=O)OCOC(C)=O)c1ccccc1OCCOc1ccccc1N(CC(=O)OCOC(C)=O)CC(=O)OCOC(C)=O` [BAPTA/AM]: the “Generation of occludin cleavage product in presence of inhibitor” value (from here on “Generation … of inhibitor”) in [1] is recorded as “substantially decreased”. In addition, the “Distal proinflammatory signaling (NF-κB activation, IL-8 production)” value in series [2] is recorded as “unable to activate distal proinflammatory signaling”.

Consider `NC(=O)c1ncn([C@@H]2O[C@H](CO)[C@@H](O)[C@H]2O)n1` [Ribavirin], for which, in [3], the “Virus growth or cell-to-cell spread” value is “does not inhibit”.

As to `C/C=C(/C)C(=O)O[C@H]1C(C)=C2[C@H]([C@@H]1OC(=O)CCCCCCC)[C@@](C)(OC(C)=O)C[C@H](OC(=O)CCC)[C@@]1(O)[C@H]2OC(=O)[C@@]1(C)O` [thapsigargin], the “100 kDa E-cadherin cleavage product after stimulation” value in [4] is given as “generation of a 100 kDa E-cadherin cleavage product”. Besides, the “Penetration of biotin between cells of polarized monolayer” value in [5] is “resulted in the penetration of biotin; also recorded: increase in accessibility of the junctions to biotin”. In addition, in series [6], the “Co-localization of calpain and E-cadherin” value is “increased; also recorded: induced mobilization and co-localization of calpain with E-cadherin”.

Take Pam3Cys-Ser-Lys4 [P3C]: the Transepithelial resistance result in series [7] is recorded as “no changes”. Further, the “45 kDa occludin cleavage product after stimulation” value in series [1] (1HAEo- and SAEC, 1 hour post stimulation) is on record as “readily identified”. In series [4], the “100 kDa E-cadherin cleavage product after stimulation” value is “generation of a 100 kDa E-cadherin cleavage product”. In [8], the “Transcription of calpain 2” value is “increased”. Further, the “Penetration of biotin between cells of polarized monolayer” value in [5] is reported as “resulted in the penetration of biotin; also recorded: increase in accessibility of the junctions to biotin”. The “Bacterial invasion across the monolayer” value in [9] is “no changes”. Also, the “Co-localization of calpain and E-cadherin” value in series [6] is recorded as “increased; also recorded: co-localizing with E-cadherin”. In addition, in series [6] (1 h stimulation), the “Co-localization of calpain and occludin” value is recorded as “Increased co-localization; also recorded: co-localized with membrane-associated occludin; also recorded: Increased colocalization”. For the same molecule, the “Distribution of occludin and E-cadherin at cell junctions” value in series [6] is given as “dramatic loss; also recorded: altered”; in series [6] (listed as PC3) it was “altered”. Moreover, the “Calpain activity after exposure to the stimulus” value in series [10] is given as “significantly increased; also recorded: sufficient to activate calpain”; in series [10] (listed as Pam3Cys), “activates calpain 2”.

`CCCC[C@@H](C=O)NC(=O)[C@H](CC(C)C)NC(=O)[C@H](CC(C)C)NC(C)=O` [ALLN, N-acetyl-leucyl-leucyl-norleucinal] (Ac-Leu-Leu-[Nle]-aldehyde): in series [1], the “Generation … of inhibitor” value is “blocked generation of the occludin cleavage product”.

As to `COC(=O)CC[C@H](NC(=O)[C@H](CC(=O)OC)NC(=O)OCc1ccccc1)C(=O)N[C@H](C(=O)N[C@@H](CC(=O)OC)C(=O)CF)C(C)C` [Z-DEVD-FMK], the “Generation … of inhibitor” value in [1] is reported as “neither the general matrix metalloproteinase inhibitor GM6001 nor the caspase inhibitor Z-DEVD-FMK blocked”.

Turning to `CNC(=O)[C@H](Cc1c[nH]c2ccccc12)NC(=O)[C@@H](CC(=O)NO)CC(C)C` [GM6001], the “Generation … of inhibitor” value in series [1] was “neither the general matrix metalloproteinase inhibitor GM6001 nor the caspase inhibitor Z-DEVD-FMK blocked”.

B1: exogenous human calpain 1 (protein)
chain: SEEIITPVYCTGVSAQVQKQRARELGLGRHENAIKYLGQDYEQLRVRCLQSGTLFRDEAFPPVPQSLGYKDLGPNSSKTYGIKWKRPTELLSNPQFIVDGATRTDICQGALGDCWLLAAIASLTLNDTLLHRVVPHGQSFQNGYAGIFHFQLWQFGEWVDVVVDDLLPIKDGKLVFVHSAEGNEFWSALLEKAYAKVNGSYEALSGGSTSEGFEDFTGGVTEWYELRKAPSDLYQIILKALERGSLLGCSIDISSVLDMEAITFKKLVKGHAYSVTGAKQVNYRGQVVSLIRMRNPWGEVEWTGAWSDSSSEWNNVDPYERDQLRVKMEDGEFWMSFRDFMREFTRLEICNLTPDALKSRTIRKWNTTLYEGTWRRGSTAGGCRNYPATFWVNPQFKIRLDETDDPDDYGDRESGCSFVLALMQKHRRRERRFGRDMETIGFAVYEVPPELVGQPAVHLKRDFFLANASRARSEQFINLREVSTRFRLPPGEYVVVPSTFEPNKEGDFVLRFFSEKSAGTVELDDQIQANLPDEQVLSEEEIDENFKALFRQLAGEDMEISVKELRTILNRIISKHKDLRTKGFSLESCRSMVNLMDRDGNGKLGLVEFNILWNRIRNYLSIFRKFDLDKSGSMSAYEMRMAIESAGFKLNKKLYELIITRYSEPDLAVDFDNFVCCLVRLETMFRFFKTLDTDLDGVVTFDLFKWLQLTMFA
Turning to B1, the “in vitro degradation (cleavage) of the immunoprecipitated protein by Ca2+-activated exogenous calpain, immunoblot” value in series [11] was “exogenous calpain activated by the addition of Ca2+ degraded occludin and E-cadherin, but not claudin-1 or JAM-1”; in series [12], “exogenous calpain activated by the addition of Ca2+ degraded occludin and E-cadherin, but not claudin-1 or JAM-1”.
